In the test the test system is HIF-1. As to the kind of experiment: Inhibition of HIF-1 mediated HRE transcription activity (pGL3-HRE-luciferase reporter). In kind it is cell-based, human. The following applies: HCT116, hypoxic condition 12 hours. The protocol: To investigate the inhibition of HIF-1 transcription activity by the compound of the present invention, pGL3-basic vector (Promega) using luciferase as a reporter was cloned in multi-cloning site so as for HRE (Hypoxia Responsive Element, 5′-ACGTG-3′) existing in human VEGF gene to be repeated 6 times, resulting in the construction of pGL3-HRE-luciferase vector.
The human rectal cancer cell line HCT116 was seeded in a 48-well cell culture vessel. On the next day, the cells were transfected with 25 ng of pGL3-HRE-luciferase vector and 2.5 ng of Renilla control vector by using Polyfect reagent. After culturing the cells for 24 hours, the medium was replaced, followed by further culture for 4 hours. Then, the cells were treated with the compound prepared in each example at the concentration of 10 μM respectively, followed by culture in hypoxic condition (oxygen 1%, nitrogen 94%, carbon dioxide 5%) for 12 hours. Lysate was obtained by using RIPA buffer, by which hypoxia-induced luciferase activity was measured by using dual-luciferase assay system (Promega). Hypoxia-induced luciferase activity after the treatment of the compound prepared in example 1 or the compound prepared in comparative example 1 was measured by the same manner as described above except that the compound was treated at the concentrations of 0, 1, 3, 5, 10, and 20 μM. HIF-1 inhibition activity of each compound prepared in example 1 and comparative example 1 respectively was compared and the results are shown in Table 2 and FIG. 2.
(In general: A reporter such as luciferase makes a cellular process visible.)

Structures are written as SMILES.

On to `COC(=O)c1ccc(O)c(NC(=O)COc2ccc(C34CC5CC(CC(C5)C3)C4)cc2)c1` [Comparative Example 1, 3-[2-(4-adamantan-1-yl-phenoxy)-acetylamino]-4-hydroxy-benzoic acid methyl ester, reference compound], for which the “HRE transcription activity (%)” value was 119.4% (1 μM); 121.5% (3 μM); 98.8% (5 μM); 75.6% (10 μM); 43.1% (20 μM).

The values are drawn from patent publication US8940936B2, “Aryloxy phenoxy acrylic compound having HIF-1 inhibition activity, method for preparing same, and pharmaceutical composition containing same as an active ingredient” (Korea Research Institute of Bioscience and Biotechnology, priority 2010, dated 2015).
